Reference: US7029840B2 (priority 2000, dated 2006)
Read-outs that look alike come from different tables or passages of the source.

Assays:
[1] = system: N. gonorrhoeae plasmid DNA; assay: Stability of N. gonorrhoeae plasmid DNA in urine, 3 days at room temperature (SDA, MOTA value); type: biochemical, Neisseria gonorrhoeae
Experimental: The samples were incubated for 3 days at room temperature. […] SDA was performed on the isolated DNA as described in Example 1.

[2] = system: intact cells of N. gonorrhoeae; type: cell-based, N. gonorrhoeae ATCC 19424; settings: for Average MOTA Value: urine; for average MOTA values for day 0 versus day 6: 100 mM sodium citrate, sodium fluoride, sodium borate, 5 mM EDTA, urine at 5, 25, 35, and 45° C.
Experimental: (§1) The samples were spiked with cells of N. gonorrhoeae a final concentration 2500 cells/ml. Each sample was incubated for 14 days at room temperature. At specific time points (day 0, 6, and 14), 2.0-ml volumes of each sample (eight replicates) was centrifuged at 2000×g for 30 minutes at room temperature. The supernate was decanted and the cell pellet was resuspended with a 2.0-ml volume of BSA/PBS, and then centrifuged at 2000×g for 30 minutes at room temperature. Again, the supernatant was decanted and the cell pellet was resuspended with a 2.0-ml volume of CT/GC diluent. […] SDA was performed on the cell lysate as described in Example 1.
The samples were spiked with cells of N. gonorrhoeae at a final concentration of 2500 cells/ml. Each sample was incubated for 6 days at 5, 25, 35, and 45° C. At specific time points (day 0 and 6), the samples were processed by centrifugation at 2000×g as described in Example 2. […] SDA was performed on the cell lysates as described in Example 1.

[3] = system: intact cells of N. gonorrhoeae; type: cell-based, N. gonorrhoeae ATCC 19424; settings: for Average MOTA Value: 10 mM potassium EDTA, urine
Experimental: as §1
(§2) i) Potassium EDTA: Seventy-milliliter volumes of pooled negative urine were prepared with 10 mM potassium EDTA (final concentration). The samples were spiked with cells of N. gonorrhoeae at a final concentration of 2000 cells/ml. Each sample was incubated for 14 days at 5, 25, 33, 45, and 60° C. At specific time points (day 0, 6 and 14), the samples were processed by centrifugation at 2000×g as described in Example 3. […] SDA was performed on the cell lysates as described in Example 1.
as §2, with “ii) DNA/RNA Protect™:” for “i) Potassium EDTA:”, “10% (v/v) DNA/RNA Protect™” for “10 mM potassium EDTA”

[4] = system: N. gonorrhoeae plasmid DNA; settings: for Average MOTA Value: 60 min room temperature after DNA spike
Experimental: Twenty-milliliter volumes of negative pooled urine were prepared with 10, 40, and 100 mM sodium citrate (final concentration); 10, 20, and 40 mM EDTA (final concentration); and without chemical additive. In addition, a 20-ml volume of negative pooled urine was heated for 30 minutes (heated-treated urine). The samples were incubated for 60 minutes at room temperature. After the incubation step, the samples were spiked with N. gonorrhoeae plasmid DNA (2500 DNA copies/ml). The samples were incubated for 60 minutes at room temperature. After the incubation step, two-ml volumes from each sample (eight replicates) were heated for 30 minutes at 114° C. to denature the DNA.
A 1-ml volume of the 8 replicates as described above was added to ferrosoferric oxide. A 100-ul volume of 6 M glycine HCl was added to each sample. The DNA-ferrosoferric oxide complexes were separated on a magnet and washed two times with a 900-ul volume of 1 mM glycine HCl to reduce the ionic strength and remove nonspecifically bound materials. The DNA was released from the ferrosoferric oxide with 480-ul volume of elution buffer (88.3 mM KOH, 177.8 mM bicine, 12.1% (v/v) glycerol, and 11.0% (v/v) DMSO [final concentration]).
Strand Displacement Amplification (SDA) was performed according to the manufacturer's instructions (BDProbeTec™ET Chlamydia trachomatis and N. gonorrhoeae Amplified DNA Assay Package Insert L-000203 [November 1999]). A 150-ul volume of each sample was added into a priming microwell. The priming microwell plate was incubated for 20 minutes at room temperature, after which the plate was incubated at 72.5° C. The amplification microwell plate was incubated at 54° C. After 10 minutes, a 100-ul volume from each priming microwell was added into the corresponding amplification microwell. The amplification microwell plate was place in a BD ProbeTec ET instrument. Data was reported as MOTA value (metric other than acceleration).

[5] = system: intact cells of N. gonorrhoeae; type: cell-based, N. gonorrhoeae ATCC 19424; settings: urine, room temperature; for average amplification MOTA values at day 0 versus day 6: 100 mM sodium citrate, sodium fluoride, sodium borate, 5 mM EDTA
Experimental: as §1
Forty-milliliter volumes of negative urine was prepared with 100 mM sodium citrate (final concentration); 5, 10, and 15% (v/v) sucrose (final concentration); 5, 10, and 15% (v/v) PVP (final concentration); 5, 10, and 15 mM magnesium chloride (final concentration); 10 and 100 mM sodium fluoride (final concentration); 10 and 100 mM sodium formate (final concentration); 10 and 100 mM sodium borate (final concentration); 0.5 and 5 mM EDTA (final concentration); 0.5 and 5 mM EGTA (final concentration); and without chemical additive. The samples were spiked with cells of N. gonorrhoeae at a final concentration of 2500 cells/ml. Each sample was incubated for 6 days at room temperature. At specific time points (day 0 and 6), the samples were processed by centrifugation at 2000×g as described in Example 2. […] SDA was performed on the cell lysate as described in Example 1.

In the case of `O=C(O)CN(CCN(CC(=O)O)CC(=O)O)CC(=O)O` [EDTA, Ethylenediaminetetraacetic acid], the “Average MOTA Value” ([1]; 10 mM, Day 0) is reported as 32177, the “Average MOTA Value” ([1]; 10 mM, Day 3) is reported as 30445 and the “Average MOTA Value” ([1]; 20 mM, Day 0) is reported as 34594. The “Average MOTA Value” ([1]; 20 mM, Day 3) was 31366, the “Average MOTA Value” ([2]; 5 mM, 5° C., Day 0) was 50132 and the “Average MOTA Value” ([2]; 5 mM, 5° C., Day 6) was 64610. For the same compound, the “Average MOTA Value” ([2]; 5 mM, 25° C., Day 0) was 54871, the “Average MOTA Value” ([2]; 5 mM, 25° C., Day 6) was 66009 and the “Average MOTA Value” ([2]; 5 mM, 35° C., Day 0) was 57077. The “Average MOTA Value” ([2]; 5 mM, 35° C., Day 6) was 69291, the “Average MOTA Value” ([2]; 5 mM, 45° C., Day 0) was 62891 and the “Average MOTA Value” ([2]; 5 mM, 45° C., Day 6) was 74667. The “average MOTA values for day 0 versus day 6” value [2] was “no significant difference”, the “time for which stability of intact cells of N. gonorrhoeae in human urine was maintained” value ([3]; 10 mM EDTA, 5, 27, 33, 45, and 60° C.) was at least 14 days and the “Average MOTA Value” ([3]; 5° C., Day 0) was 26448. For the same compound, the “Average MOTA Value” ([3]; 5° C., Day 6) was 35234, the “Average MOTA Value” ([3]; 5° C., Day 14) was 36205 and the “Average MOTA Value” ([3]; 27° C., Day 0) was 26448. For the same compound, the “Average MOTA Value” ([3]; 27° C., Day 6) was 31619, the “Average MOTA Value” ([3]; 27° C., Day 14) was 36994 and the “Average MOTA Value” ([3]; 33° C., Day 0) was 26448. The “Average MOTA Value” ([3]; 33° C., Day 6) was 34252, the “Average MOTA Value” ([3]; 33° C., Day 14) was 38183 and the “Average MOTA Value” ([3]; 45° C., Day 0) was 26448. The “Average MOTA Value” ([3]; 45° C., Day 6) was 36132, the “Average MOTA Value” ([3]; 45° C., Day 14) was 41115 and the “Average MOTA Value” ([3]; 60° C., Day 0) was 26448. For the same compound, the “Average MOTA Value” ([3]; 60° C., Day 6) was 32218, the “Average MOTA Value” ([3]; 60° C., Day 14) was 26259 and the “Average MOTA Value” ([4]; 10 mM additive in human urine) was 16103. The “Average MOTA Value” ([4]; 20 mM additive in human urine) was 16178, the “Average MOTA Value” ([4]; 40 mM additive in human urine) was 20007 and the “protection of N. gonorrhoeae plasmid DNA from degradation in human urine by endogenous nucleases” value ([4]; sodium citrate at 10, 20, and 40 mM, EDTA at 10, 40, 100 mM (so in the source)) was “protected N. gonorrhoeae plasmid DNA from degradation”. The “Average MOTA Value” ([5]; 0.5 mM, Day 0) was 35950, the “Average MOTA Value” ([5]; 0.5 mM, Day 6) was 650 and the “Average MOTA Value” ([5]; 5 mM, Day 0) was 32392. The “Average MOTA Value” ([5]; 5 mM, Day 6) was 34445 and the “average amplification MOTA values at day 0 versus day 6” value [5] was “not significantly different”.
For `O=C(O)CN(CCOCCOCCN(CC(=O)O)CC(=O)O)CC(=O)O` [EGTA, Ethylenebis(oxyethylenenitrilo) tetraacetic acid], the “Average MOTA Value” ([5]; 0.5 mM, Day 0) was 32611, the “Average MOTA Value” ([5]; 0.5 mM, Day 6) was 1150 and the “Average MOTA Value” ([5]; 5 mM, Day 0) was 34504. For the same compound, the “Average MOTA Value” ([5]; 5 mM, Day 6) was 6931.
With `[Cl-].[Cl-].[Mg+2]` [MgCl^2, Magnesium chloride] the “Average MOTA Value” ([5]; 5 mM, Day 0) was 28072, the “Average MOTA Value” ([5]; 5 mM, Day 6) was 1507 and the “Average MOTA Value” ([5]; 10 mM, Day 0) was 27157. For the same compound, the “Average MOTA Value” ([5]; 10 mM, Day 6) was 4547, the “Average MOTA Value” ([5]; 15 mM, Day 0) was 35926 and the “Average MOTA Value” ([5]; 15 mM, Day 6) was 4868.
`O.O.O.O.O.O.O.O.O.O.[Na+].[Na+].[O-]B1OB2OB([O-])OB(O1)O2` [sodium borate, Sodium borate] was tested, and the “Average MOTA Value” ([1]; 100 mM, Day 0) was 23263, the “Average MOTA Value” ([1]; 100 mM, Day 3) was 34089 and the “average MOTA values for day 0 versus day 6” value [2] was “no significant difference”. For the same compound, the “Average MOTA Value” ([2]; 100 mM, 5° C., Day 0) was 41940, the “Average MOTA Value” ([2]; 100 mM, 5° C., Day 6) was 40325 and the “Average MOTA Value” ([2]; 100 mM, 25° C., Day 0) was 49622. The “Average MOTA Value” ([2]; 100 mM, 25° C., Day 6) was 50745, the “Average MOTA Value” ([2]; 100 mM, 35° C., Day 0) was 60308 and the “Average MOTA Value” ([2]; 100 mM, 35° C., Day 6) was 60296. The “Average MOTA Value” ([2]; 100 mM, 45° C., Day 0) was 63343, the “Average MOTA Value” ([2]; 100 mM, 45° C., Day 6) was 62283 and the “Average MOTA Value” ([5]; 10 mM, Day 0) was 26170. The “Average MOTA Value” ([5]; 10 mM, Day 6) was 15464, the “average amplification MOTA values at day 0 versus day 6” value [5] was “not significantly different” and the “Average MOTA Value” ([5]; 100 mM, Day 0) was 24607. The “Average MOTA Value” ([5]; 100 mM, Day 6) was 28908.
